Read-outs that look alike come from different tables or passages of the source.
Key:
Type in all cases: physicochemical
[1] = Solubility measurements by gravimetric method in solvents at 23° C. and 50° C.; details: for solubility at 2 days: thermodynamic from solid
Protocol: Solubility measurements were done by gravimetric method in 20 different solvents at two temperatures (23° C. and 50° C.). About 20-30 mg of Form A, the synthesis of which is described below, was weighed and 0.75 mL solvent was added to form a slurry. The slurry was then stirred for two days at the specified temperature. The vial was centrifuged and the supernatant was collected for solubility measurement through gravimetric method. The saturated supernatant was transferred into pre-weighed 2 mL HPLC vials and weighed again (vial+liquid). The uncapped vial was then left on a 50° C. hot plate to slowly evaporate the solvent overnight. The vials were then left in the oven at 50° C. and under vacuum to remove the residual solvent so that only the dissolved solid remained. The vial was then weighed (vial+solid). From these three weights; vial, vial+liquid and vial+solid; the weight of dissolved solid and the solvent were calculated. Then using solvent density the solubility was calculated as mg solid/mL of solvent.
20-30 mg of Form A was weighed into 2 mL vial and 500 μL MeOH solvent system as outlined in the table was added. If dissolved, more solids were added to form the slurry. The slurries were then stirred for two days. The vials were centrifuged and the supernatant was collected for solubility measurement through gravimetric method by evaporation at 50° C. XRPD analysis was conducted on the solid after filtration of the slurries.
For the sake of comparison, the solubility of Compound 1, i.e., the non-crystalline freebase, was also measured in two solvent systems to see the effect of water.

[2] = Solubility in MeOH:Water by slow heating to dissolve at fixed solvent volume; details: organic solvent or mixture, thermodynamic from solid
Protocol: Three solvent compositions were used as MeOH:Water (99:1 vol), (98:2) and (95:5). About 25 mg of Form A was weighed into 2 mL vial and 6 volume solvent was added, then slowly heated to dissolve. For experiment with 5% water, an additional test was conducted with 8 vol solvents.

[3] = Stability study of Form A under temperature/RH storage

O=C(c1ccc(NS(=O)(=O)c2cccc3cccnc23)cc1)N1CCN(CC2CC2)CC1 [Form A, 1-(cyclopropylmethyl)-4-(4-(quinoline-8-sulfonamido)benzoyl)piperazin-1-ium hemisulfate sesquihydrate]
solubility at 2 days ([1]; DCM, 23 °C, organic solvent or mixture, DCM, 23° C., read-out: Solubility): 2000 µg/mL
Solubility ([1]; EtOAc, 23° C.): 0 mg solid/mL solvent
solubility at 2 days ([1]; EtOAc, 50 °C, organic solvent or mixture, EtOAc, 50° C., read-out: Solubility): 2000 µg/mL
solubility at 2 days ([1]; EtOAc:MeOH (1:1) and 5 vol % water, 23 °C, organic solvent or mixture, EtOAc:MeOH (1:1) and 5 vol % water, 23° C., read-out: Solubility): 3000 µg/mL
solubility at 2 days ([1]; EtOAc:MeOH (1:1) and 5 vol % water, 50 °C, organic solvent or mixture, EtOAc:MeOH (1:1) and 5 vol % water, 50° C., read-out: Solubility): 12000 µg/mL
solubility at 2 days ([1]; EtOAc:MeOH (1:1), 23 °C, organic solvent or mixture, EtOAc:MeOH (1:1), 23° C., read-out: Solubility): 21000 µg/mL
solubility at 2 days ([1]; EtOAc:MeOH (1:1), 50 °C, organic solvent or mixture, EtOAc:MeOH (1:1), 50° C., read-out: Solubility): 240000 µg/mL
solubility at 2 days ([1]; EtOAc:MeOH (1:9), 23 °C, organic solvent or mixture, EtOAc:MeOH (1:9), 23° C., read-out: Solubility): 359000 µg/mL
solubility at 2 days ([1]; EtOAc:MeOH (1:9), 50 °C, organic solvent or mixture, EtOAc:MeOH (1:9), 50° C., read-out: Solubility): 531000 µg/mL
Solubility ([1]; EtOAc:MeOH (9:1), 23° C.): 0 mg solid/mL solvent
solubility at 2 days ([1]; EtOAc:MeOH (9:1), 50 °C, organic solvent or mixture, EtOAc:MeOH (9:1), 50° C., read-out: Solubility): 9000 µg/mL
Solubility ([1]; EtOH, 23° C.): 0 mg solid/mL solvent
solubility at 2 days ([1]; EtOH, 50 °C, organic solvent or mixture, EtOH, 50° C., read-out: Solubility): 1000 µg/mL
solubility at 2 days ([1]; EtOH:MeOH (1:1), 23 °C, organic solvent or mixture, EtOH:MeOH (1:1), 23° C., read-out: Solubility): 2000 µg/mL
solubility at 2 days ([1]; EtOH:MeOH (1:1), 50 °C, organic solvent or mixture, EtOH:MeOH (1:1), 50° C., read-out: Solubility): 11000 µg/mL
Solubility ([1]; IPA, 23° C.): 0 mg solid/mL solvent
solubility at 2 days ([1]; IPA, 50 °C, organic solvent or mixture, IPA, 50° C., read-out: Solubility): 2000 µg/mL
solubility at 2 days ([1]; IPA:DMSO (8:2), 23 °C, organic solvent or mixture, IPA:DMSO (8:2), 23° C., read-out: Solubility): 11000 µg/mL
solubility at 2 days ([1]; IPA:DMSO (8:2), 50 °C, organic solvent or mixture, IPA:DMSO (8:2), 50° C., read-out: Solubility): 28000 µg/mL
solubility at 2 days ([1]; IPA:DMSO:water (70:20:10), 23 °C, organic solvent or mixture, IPA:DMSO:water (70:20:10), 23° C., read-out: Solubility): 1000 µg/mL
solubility at 2 days ([1]; IPA:DMSO:water (70:20:10), 50 °C, organic solvent or mixture, IPA:DMSO:water (70:20:10), 50° C., read-out: Solubility): 8000 µg/mL
solubility at 2 days ([1]; IPA:DMSO:water (70:25:5), 23 °C, organic solvent or mixture, IPA:DMSO:water (70:25:5), 23° C., read-out: Solubility): 2000 µg/mL
solubility at 2 days ([1]; IPA:DMSO:water (70:25:5), 50 °C, organic solvent or mixture, IPA:DMSO:water (70:25:5), 50° C., read-out: Solubility): 9000 µg/mL
solubility at 2 days ([1]; IPA:DMSO:water (80:18:2), 23 °C, organic solvent or mixture, IPA:DMSO:water (80:18:2), 23° C., read-out: Solubility): 1000 µg/mL
solubility at 2 days ([1]; IPA:DMSO:water (80:18:2), 50 °C, organic solvent or mixture, IPA:DMSO:water (80:18:2), 50° C., read-out: Solubility): 6000 µg/mL
Solubility ([1]; IPAc, 23° C.): 0 mg solid/mL solvent
solubility at 2 days ([1]; IPAc, 50 °C, organic solvent or mixture, IPAc, 50° C., read-out: Solubility): 1000 µg/mL
Solubility ([1]; MEK:water (20:1), 23° C.): 0 mg solid/mL solvent
solubility at 2 days ([1]; MEK:water (20:1), 50 °C, organic solvent or mixture, MEK:water (20:1), 50° C., read-out: Solubility): 2000 µg/mL
solubility at 2 days ([1]; MeOAc:MeOH (1:1) and 1 vol % water, 23 °C, organic solvent or mixture, MeOAc:MeOH (1:1) and 1 vol % water, 23° C., read-out: Solubility): 118000 µg/mL
solubility at 2 days ([1]; MeOAc:MeOH (1:1) and 1 vol % water, 50 °C, organic solvent or mixture, MeOAc:MeOH (1:1) and 1 vol % water, 50° C., read-out: Solubility): 236000 µg/mL
solubility at 2 days ([1]; MeOAc:MeOH (1:1) and 2.5 vol % water, 23 °C, organic solvent or mixture, MeOAc:MeOH (1:1) and 2.5 vol % water, 23° C., read-out: Solubility): 39000 µg/mL
solubility at 2 days ([1]; MeOAc:MeOH (1:1) and 2.5 vol % water, 50 °C, organic solvent or mixture, MeOAc:MeOH (1:1) and 2.5 vol % water, 50° C., read-out: Solubility): 143000 µg/mL
solubility at 2 days ([1]; MeOAc:MeOH (1:1) and 5 vol % water, 23 °C, organic solvent or mixture, MeOAc:MeOH (1:1) and 5 vol % water, 23° C., read-out: Solubility): 5000 µg/mL
solubility at 2 days ([1]; MeOAc:MeOH (1:1) and 5 vol % water, 50 °C, organic solvent or mixture, MeOAc:MeOH (1:1) and 5 vol % water, 50° C., read-out: Solubility): 26000 µg/mL
solubility at 2 days ([1]; MeOAc:MeOH (1:1), 23 °C, organic solvent or mixture, MeOAc:MeOH (1:1), 23° C., read-out: Solubility): 208000 µg/mL
solubility at 2 days ([1]; MeOAc:MeOH (1:1), 50 °C, organic solvent or mixture, MeOAc:MeOH (1:1), 50° C., read-out: Solubility): 340000 µg/mL
solubility at 2 days ([1]; MeOH, 23 °C, organic solvent or mixture, MeOH, 23° C., 2 days slurry, read-out: Solubility): 393000 µg/mL
solubility at 2 days ([1]; MeOH, 50 °C, organic solvent or mixture, MeOH, 50° C., 2 days slurry, read-out: Solubility): > 765000 µg/mL
solubility at 2 days ([1]; MeOH:Water (1:1), 23 °C, aqueous with cosolvent or surfactant or cyclodextrin, MeOH:Water (1:1), 23° C., read-out: Solubility): 7000 µg/mL
solubility at 2 days ([1]; MeOH:Water (1:1), 50 °C, aqueous with cosolvent or surfactant or cyclodextrin, MeOH:Water (1:1), 50° C., read-out: Solubility): 27000 µg/mL
solubility at 2 days ([1]; MeOH:water (1:1) system as printed, 0 vol % water, organic solvent or mixture, MeOH:water (1:1) system as printed, 0 vol % water, read-out: room temperature solubility): 208000 µg/mL
solubility at 2 days ([1]; MeOH:water (1:1) system as printed, 1% water, organic solvent or mixture, MeOH:water (1:1) system as printed, 1% water, read-out: room temperature solubility): 118000 µg/mL
solubility at 2 days ([1]; MeOH:water (1:1) system as printed, 2.5% water, organic solvent or mixture, MeOH:water (1:1) system as printed, 2.5% water, read-out: room temperature solubility): 39000 µg/mL
solubility at 2 days ([1]; MeOH:water (1:1) system as printed, 5% water, organic solvent or mixture, MeOH:water (1:1) system as printed, 5% water, read-out: room temperature solubility): 5000 µg/mL
solubility at 2 days ([1]; MeOH:water (8:2), 23 °C, organic solvent or mixture, MeOH:water (8:2), 23° C., read-out: Solubility): 10000 µg/mL
solubility at 2 days ([1]; MeOH:water (8:2), 50 °C, organic solvent or mixture, MeOH:water (8:2), 50° C., read-out: Solubility): 59000 µg/mL
solubility at 2 days ([1]; MtBE, 23 °C, organic solvent or mixture, MtBE, 23° C., read-out: Solubility): 1000 µg/mL
solubility at 2 days ([1]; MtBE, 50 °C, organic solvent or mixture, MtBE, 50° C., read-out: Solubility): 3000 µg/mL
solubility at 2 days ([1]; THF, 23 °C, organic solvent or mixture, THF, 23° C., read-out: Solubility): 2000 µg/mL
solubility at 2 days ([1]; THF, 50 °C, organic solvent or mixture, THF, 50° C., read-out: Solubility): 26000 µg/mL
solubility at 2 days ([1]; THF:water (8:2), 23 °C, organic solvent or mixture, THF:water (8:2), 23° C., read-out: Solubility): 14000 µg/mL
solubility at 2 days ([1]; THF:water (8:2), 50 °C, organic solvent or mixture, THF:water (8:2), 50° C., read-out: Solubility): 77000 µg/mL
Solubility ([1]; Toluene, 23° C.): 0 mg solid/mL solvent
solubility at 2 days ([1]; Toluene:EtOH:water (10:5:0.5), 23 °C, organic solvent or mixture, Toluene:EtOH:water (10:5:0.5), 23° C., read-out: Solubility): 1000 µg/mL
solubility at 2 days ([1]; Toluene:EtOH:water (10:5:0.5), 50 °C, organic solvent or mixture, Toluene:EtOH:water (10:5:0.5), 50° C., read-out: Solubility): 4000 µg/mL
solubility at 2 days ([1]; acetone, 23 °C, organic solvent or mixture, Acetone, 23° C., read-out: Solubility): 1000 µg/mL
solubility at 2 days ([1]; acetone, 50 °C, organic solvent or mixture, Acetone, 50° C., read-out: Solubility): 6000 µg/mL
solubility at 2 days ([1]; acetone:water (8:2), 23 °C, organic solvent or mixture, acetone:water (8:2), 23° C., read-out: Solubility): 5000 µg/mL
solubility at 2 days ([1]; acetone:water (8:2), 50 °C, organic solvent or mixture, acetone:water (8:2), 50° C., read-out: Solubility): 16000 µg/mL
solubility at 2 days ([1]; acetonitrile, 23 °C, organic solvent or mixture, Acetonitrile, 23° C., read-out: Solubility): 4000 µg/mL
solubility at 2 days ([1]; acetonitrile, 50 °C, organic solvent or mixture, Acetonitrile, 50° C., read-out: Solubility): 6000 µg/mL
solubility at 2 days ([1]; cyclohexane, 23 °C, organic solvent or mixture, Cyclohexane, 23° C., read-out: Solubility): 1000 µg/mL
solubility at 2 days ([1]; cyclohexane, 50 °C, organic solvent or mixture, Cyclohexane, 50° C., read-out: Solubility): 1000 µg/mL
decrease of solubility on adding 5 vol % water ([1]; room temperature, 0 vs 5 vol % water): 42 fold
solubility at 2 days ([1]; toluene, 50 °C, organic solvent or mixture, Toluene, 50° C., read-out: Solubility): 2000 µg/mL
Solubility ([2]; MeOH:Water (95:5), 6 vol, temperature when dissolution 60 ° C.): 167000 µg/mL
Solubility ([2]; MeOH:Water (95:5), 8 vol, temperature when dissolution 50 ° C.): 125000 µg/mL
Solubility ([2]; MeOH:Water (98:2), 6 vol, temperature when dissolution 35 ° C.): 167000 µg/mL
Solubility ([2]; MeOH:Water (99:1), 6 vol, temperature when dissolution 23 ° C.): > 167000 µg/mL
degradation in stability study ([3]; one month under 40±2° C./75±5% RH): No degradation
degradation in stability study ([3]; three months at 30±2° C./65±5% RH): No degradation
degradation in stability study ([3]; three months under 25±2° C./60±5% RH): No degradation
degradation in stability study ([3]; three months under 40±2° C./75% RH): No degradation
degradation in stability study ([3]; twelve months under 25±2° C./60±5% RH): No degradation

From patent US11254652B2, “Crystalline forms of N-(4-(4-(cyclopropymethyl)piperazine-1-carbonyl)phenyl)quinoline-8-sulfonamide” (Agios Pharmaceuticals, Inc., priority 2017, dated 2022)
